According to US9023865B2, “Compounds that are ERK inhibitors” (Merck Sharp & Dohme Corp., priority 2011, dated 2015):

Each compound was assayed against Active Human ERK2 (hERK2) (Homo sapiens (Human), UniProt P28482) (assay: Active Human ERK2 (hERK2) Activity Assay (IMAP-FP)). Conditions: phosphorylated active hERK2, 30 μM ATP; average; read-out: ERK 2 Human average IC50.
Type: biochemical
Experimental: Assays Active Human ERK2 (hERK2) Activity Assay:
Activated ERK2 activity was determined in an IMAP-FP assay (Molecular Devices). […] The final reaction in each well of 25 μL consists of 0.5 nM hERK2, 900 nM unlabeled peptide, 80 nM labeled-peptide, and 30 μM ATP. Phosphorylation reactions were allowed to proceed for 60 minutes and were immediately quenched by the addition of […] IMAP detection beads (1:1000 dilutions) in IMAP binding buffer (Molecular Devices) with 24 mM NaCl. Plates were read on EnVision reader after 60 minutes binding equilibration using Fluorescence Polarization protocol (Perkin Elmer).

Chain of Active Human ERK2 (hERK2) (P28482 whole entry): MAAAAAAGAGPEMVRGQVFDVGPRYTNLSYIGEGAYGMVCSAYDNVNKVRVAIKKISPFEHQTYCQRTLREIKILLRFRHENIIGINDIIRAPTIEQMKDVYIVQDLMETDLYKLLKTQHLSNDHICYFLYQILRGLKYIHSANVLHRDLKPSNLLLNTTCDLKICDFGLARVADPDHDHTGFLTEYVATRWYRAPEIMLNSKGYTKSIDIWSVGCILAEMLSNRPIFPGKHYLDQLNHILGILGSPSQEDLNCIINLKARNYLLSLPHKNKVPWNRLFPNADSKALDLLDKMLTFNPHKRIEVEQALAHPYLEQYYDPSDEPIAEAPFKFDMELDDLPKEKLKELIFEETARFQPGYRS

For `C[C@@H](NC(=O)Nc1cc2[nH]nc(C3CCC3)c2cn1)c1ccc(Cl)cc1` [Example 151], which IC50 is on record?
The IC50 was 11.1 nM.

For `CCOc1ncccc1CNC(=O)Nc1cc2[nH]nc(-c3ccnc(C)c3)c2cn1` [Example 526], which IC50 is on record?
The IC50 was 0.546 nM.

For `CN1C[C@@H](NC(=O)Nc2cc3[nH]nc(-c4ccc(F)cc4)c3cn2)[C@H](c2ccccc2)C12COC2` [Example 557], which IC50 is on record?
The IC50 was 1.86 nM.

For `COCC(O)CNC(=O)c1n[nH]c2cc(NC(=O)N[C@H](C)c3ccccc3)ncc12` (stereo partly drawn) [Example 133], which IC50 is on record?
Its IC50 is 11 nM.

How did the IC50 turn out when `Cc1cc(-c2n[nH]c3cc(NC(=O)N[C@H](c4ccccc4)[C@H]4CCCO4)ncc23)ccn1` [Example 551] was run?
Its IC50 is 41.2 nM.

Which IC50 does the source give for `C[C@@H](NC(=O)Nc1cc2[nH]nc(-c3cnn(C)c3)c2cn1)c1ccc(Cl)cc1` [Example 59, 1-[(1R)-1-(4-chlorophenyl)ethyl]-3-[3-(1-methyl-1H-pyrazol-4-yl)-1H-pyrazolo[4,3-c]pyridin-6-yl]urea] here?
Its IC50 is 0.514 nM.

Which IC50 does the source give for `Cc1cc(-c2n[nH]c3cc(NC(=O)N[C@H]4CN(C)C[C@@H]4C4CCOCC4)ncc23)ccn1` [Example 210] here?
The IC50 was 96.8 nM.

With `Cc1cc(-c2n[nH]c3cc(NC(=O)NC(CS(C)(=O)=O)c4ccccc4)ncc23)ccn1` (stereo not drawn) [Example 566] as the compound, how does the IC50 read?
Its IC50 is 0.313 nM.

For `COCCNC(=O)Nc1cc2[nH]nc(-c3cc(C)nc(OC)c3)c2cn1` [Example 631], which IC50 is on record?
Its IC50 is 17.4 nM.

Which IC50 does the source give for `Cc1cc(-c2n[nH]c3cc(NC(=O)NCC4CCCO4)ncc23)ccn1` (stereo not drawn) [Example 458] here?
The IC50 was 8.46 nM.

For `O=C(NCC1CC1)Nc1cc2[nH]nc(C3CC3)c2cn1` [Example 148], which IC50 is on record?
Its IC50 is 84.3 nM.

With `COc1cc(CNC(=O)Nc2cc3[nH]nc(-c4ccnc(C)c4)c3cn2)on1` [Example 472] as the compound, how does the IC50 read?
The IC50 was 11.1 nM.

How did the IC50 turn out when `Cc1cc(-c2n[nH]c3cc(NC(=O)NCc4ccc(-c5ncc[nH]5)cc4)ncc23)ccn1` [Example 371] was run?
The IC50 was 59 nM.

Which IC50 does the source give for `Cc1cc(-c2n[nH]c3cc(NC(=O)N(C)C4CCCCC4)ncc23)ccn1` [Example 576] here?
The IC50 was 2450 nM.

`Cc1cc(-c2n[nH]c3cc(NC(=O)N[C@@H]4CCS(=O)(=O)c5ccccc54)ncc23)ccn1` [Example 275] was tested. Which IC50 did it give?
The IC50 was 1.61 nM.

`Cc1cc(-c2n[nH]c3cc(NC(=O)N[C@@H]4CN(C)C[C@H]4c4ccccc4)ncc23)ccn1` [Example 181] was tested. Which IC50 did it give?
Its IC50 is 0.217 nM.

For `Cc1cc(-c2n[nH]c3cc(NC(=O)NCc4ccc(Cl)cc4F)ncc23)ccn1` [Example 521], which IC50 is on record?
Its IC50 is 3.31 nM.

Which IC50 does the source give for `COC[C@@H](NC(=O)Nc1cc2[nH]nc(-c3ccnc(N4CCOCC4)c3)c2cn1)c1ccc(F)cc1` [Example 298] here?
The IC50 was 1.17 nM.

How did the IC50 turn out when `C[C@@H](NC(=O)Nc1cc2[nH]nc(-c3cnn(C)c3)c2cn1)C1CCCCC1` [Example 589] was run?
Its IC50 is 0.823 nM.

`Cc1cc(-c2n[nH]c3cc(NC(=O)NCc4cccc(-c5ncc[nH]5)c4)ncc23)ccn1` [Example 372] was tested. Which IC50 did it give?
The IC50 was 1.33 nM.

How did the IC50 turn out when `COCCOC[C@@H](NC(=O)Nc1cc2[nH]nc(C(F)F)c2cn1)c1ccccc1` [Example 694] was run?
The IC50 was 6.03 nM.

For `Cc1cc(-c2n[nH]c3cc(NC(=O)NC[C@H]4COCCO4)ncc23)ccn1` [Example 549], which IC50 is on record?
The IC50 was 2.62 nM.

Which IC50 does the source give for `C[C@@H](NC(=O)Nc1cc2[nH]nc(-c3ccc(=O)[nH]c3)c2cn1)c1ccc(F)cc1` [Example 282] here?
The IC50 was 0.304 nM.

`COC[C@H](Cc1ccccc1)NC(=O)Nc1cc2[nH]nc(-c3ccnc(C)c3)c2cn1` [Example 494] was tested. Which IC50 did it give?
Its IC50 is 4.34 nM.

Which IC50 does the source give for `COCCNC(=O)Nc1cc2[nH]nc(-c3ccc4cn(C)nc4c3)c2cn1` [Example 625] here?
The IC50 was 13.6 nM.

With `Cc1cc(-c2n[nH]c3c(Cl)c(NC(=O)NCc4ccccc4)ncc23)ccn1` [Example 92, 1-benzyl-3-[7-chloro-3-(2-methylpyridin-4-yl)-1H-pyrazolo[4,3-c]pyridin-6-yl]urea] as the compound, how does the IC50 read?
The IC50 was 6.25 nM.

For `C[C@@H](NC(=O)Nc1cc2[nH]nc(-c3ccc(N4CCOCC4)nc3)c2cn1)c1ccc(F)cc1` [Example 255], which IC50 is on record?
The IC50 was 0.783 nM.

How did the IC50 turn out when `COC(=O)[C@H](C)NC(=O)Nc1cc2[nH]nc(-c3ccnc(C)c3)c2cn1` [Example 455] was run?
The IC50 was 520 nM.

`Cc1cc(-c2n[nH]c3cc(NC(=O)NC4CCCC(Oc5cccc(F)c5)C4)ncc23)ccn1` (stereo not drawn) [Example 659] was tested. Which IC50 did it give?
The IC50 was 51.9 nM.

With `Cc1cc(-c2n[nH]c3cc(NC(=O)N[C@H]4COC[C@@H]4O)ncc23)ccn1` [Example 188] as the compound, how does the IC50 read?
Its IC50 is 15.1 nM.

For `Cc1cc(-c2n[nH]c3cc(NC(=O)N[C@@H](C)c4ccc(Cl)c(C)c4)ncc23)ccn1` [Example 340], which IC50 is on record?
Its IC50 is 723 nM.

For `C[C@@H](NC(=O)Nc1cc2[nH]nc(C(=O)NCc3cccnn3)c2cn1)c1ccccc1` [Example 122], which IC50 is on record?
Its IC50 is 2.55 nM.

`Cc1cc(-c2n[nH]c3cc(NC(=O)NC4(CN)CCc5cc(F)ccc54)ncc23)ccn1` (stereo not drawn) [Example 492] was tested. Which IC50 did it give?
Its IC50 is 26 nM.

With `CC(F)(F)c1n[nH]c2cc(NC(=O)NCc3ccccc3)ncc12` [Example 667] as the compound, how does the IC50 read?
The IC50 was 259 nM.

`COC[C@@H](NC(=O)Nc1cc2[nH]nc(-c3ccc(F)cc3)c2cn1)c1ccccn1` [Example 500] was tested. Which IC50 did it give?
Its IC50 is 0.778 nM.

How did the IC50 turn out when `O=C(NCc1ccccc1)Nc1cc2[nH]nc(C3CCC3)c2cn1` [Example 147] was run?
The IC50 was 11.2 nM.

How did the IC50 turn out when `Cc1nc2ccc(-c3n[nH]c4cc(NC(=O)N[C@H](C)c5ccccc5)ncc34)cc2o1` [Example 652] was run?
Its IC50 is 0.72 nM.

How did the IC50 turn out when `COC[C@@H](NC(=O)Nc1cc2[nH]nc(-c3ccc4c(c3)nnn4C)c2cn1)c1ccc(F)cc1` [Example 301] was run?
The IC50 was 0.562 nM.

`Cc1cc(-c2n[nH]c3cc(NC(=O)NCC4(O)CCN(C)CC4)ncc23)ccn1` [Example 388] was tested. Which IC50 did it give?
The IC50 was 6.66 nM.

How did the IC50 turn out when `Cc1cc(-c2n[nH]c3cc(NC(=O)N[C@H]4CCOc5cc(F)ccc54)ncc23)ccn1` [Example 276, 1-[(4S)-7-fluoro-3,4-dihydro-2H-chromen-4-yl]-3-[3-(2-methylpyridin-4-yl)-1H-pyrazolo[4,3-c]pyridin-6-yl]urea] was run?
Its IC50 is 14.7 nM.

`Cc1cc(-c2n[nH]c3cc(NC(=O)NC4CCCC(Oc5cccc(F)c5)C4)ncc23)ccn1` (stereo not drawn) [Example 656] was tested. Which IC50 did it give?
The IC50 was 5.06 nM.

With `Cc1cc(-c2n[nH]c3cc(NC(=O)NC4CCc5nc(N)sc5C4)ncc23)ccn1` (stereo not drawn) [Example 504] as the compound, how does the IC50 read?
Its IC50 is 1.36 nM.

Which IC50 does the source give for `CO[C@H]1CN(C)C[C@@H]1NC(=O)Nc1cc2[nH]nc(-c3ccc(F)cc3)c2cn1` [Example 317] here?
The IC50 was 1.13 nM.

For `O=C(NCc1ccc(F)cc1)Nc1cc2[nH]nc(C3CCC3)c2cn1` [Example 146], which IC50 is on record?
Its IC50 is 12.9 nM.

`Cc1cc(-c2n[nH]c3cc(NC(=O)NC(C4CC4)C(F)(F)F)ncc23)ccn1` (stereo not drawn) [Example 41, 1-(1-cyclopropyl-2,2,2-trifluoroethyl)-3-[3-(2-methylpyridin-4-yl)-1H-pyrazolo[4,3-c]pyridin-6-yl]urea] was tested. Which IC50 did it give?
Its IC50 is 4.48 nM.

`Cc1cc(-c2n[nH]c3cc(NC(=O)NC4CCCOc5ccccc54)ncc23)ccn1` (stereo not drawn) [Example 274] was tested. Which IC50 did it give?
Its IC50 is 0.494 nM.

How did the IC50 turn out when `Cc1cc(-c2n[nH]c3cc(NC(=O)NCC(=O)O)ncc23)ccn1` [Example 462] was run?
Its IC50 is 356 nM.

Which IC50 does the source give for `Cc1ccc2nc(CNC(=O)Nc3cc4[nH]nc(-c5ccnc(C)c5)c4cn3)cn2c1` [Example 391] here?
The IC50 was 22.2 nM.

`Cc1cc(-c2n[nH]c3cc(NC(=O)N[C@H]4CN(C)C[C@@H]4c4ccc(F)cc4)ncc23)ccn1` [Example 211] was tested. Which IC50 did it give?
Its IC50 is 0.731 nM.

How did the IC50 turn out when `CN1CC[C@@H](NC(=O)Nc2cc3[nH]nc(-c4ccc(F)cc4)c3cn2)C1` [Example 316] was run?
The IC50 was 1.84 nM.

With `Cc1cc(-c2n[nH]c3cc(NC(=O)NCc4ccns4)ncc23)ccn1` [Example 429] as the compound, how does the IC50 read?
The IC50 was 1.12 nM.

For `Cc1cc(-c2n[nH]c3cc(NC(=O)NC(C)c4ccc(-n5cncn5)cc4)ncc23)ccn1` (stereo not drawn) [Example 375], which IC50 is on record?
The IC50 was 12.8 nM.

With `Cc1cc(-c2n[nH]c3cc(NC(=O)NCc4ncco4)ncc23)ccn1` [Example 433] as the compound, how does the IC50 read?
The IC50 was 2.97 nM.

Same assay, conditions: read-out: AERK2 IC50 (Active human ERK2 Activity Assay)

How did the IC50 turn out when `C[C@@H](NC(=O)Nc1cc2[nH]nc(-c3cnn(C)c3)c2cn1)c1ccc(Cl)cc1` [Example 59, 1-[(1R)-1-(4-chlorophenyl)ethyl]-3-[3-(1-methyl-1H-pyrazol-4-yl)-1H-pyrazolo[4,3-c]pyridin-6-yl]urea] was run?
The IC50 was 0.2 to 1.7 nM.
